# Several values for one entry are separate records, joined by “and”; a condition that tells them apart may be missing. Equal entries are not always repeated.
# Columns and labels:
# [1] = biological target: T1, AfUGM (Aspergillus fumigatus, UniProt Q4W1X2); experiment: Kinetic isotope effect on flavin reduction of AfUGM with deuterated coenzymes; format: biochemical
# [2] = biological target: T1, AfUGM; experiment: Stopped-flow kinetics of flavin reduction of AfUGM by NAD; format: biochemical; conditions: for kred / Kd / kred/Kd: AfUGM wild type; for kred / Kd: anaerobic, 15 °C; for kred: pH 7.0, flavin absorbance 452 nm; for Kd: pH 7.0, from fit of kobs; for kred/Kd: catalytic efficiency
# [3] = biological target: AfUGM R91A (Aspergillus fumigatus, UniProt Q4W1X2, R91A); format: biochemical; conditions: R91A mutant
# [4] = biological target: AfUGM S93A (Aspergillus fumigatus, UniProt Q4W1X2, S93A); format: biochemical; conditions: S93A mutant
# [5] = biological target: Mycobacterium tuberculosis UGM (Mycobacterium tuberculosis, UniProt P9WIQ1); experiment: Reduction of Mycobacterium tuberculosis UGM by NADPH; format: biochemical; conditions: estimated (Figure S5)
# [6] = biological target: TcUGM; conditions: cited from earlier work
# [7] = pro-R H atom substituted with D
Compound,KIE on flavin reduction ([1]; pro-S deuterated coenzyme used to reduce AfUGM),kred [2],Kd [2] [µM],kred/Kd [2],"KIE on flavin reduction [1, 7]",catalytic efficiency of AfUGM relative to TcUGM ([2]; kred/Kd AfUGM vs TcUGM) [times],Kd [3] [µM],Variational Effect (kred/Kd of variant)/(kred/Kd of AfUGM) [3],kred/Kd [3] [M⁻¹ s⁻¹],"kred ([3]; anaerobic, 15 °C, pH 7.0) [s⁻¹]",Kd [4] [µM],Variational Effect (kred/Kd of variant)/(kred/Kd of AfUGM) [4],kred/Kd [4] [M⁻¹ s⁻¹],"kred ([4]; anaerobic, 15 °C, pH 7.0) [s⁻¹]",kred [5] [s⁻¹],Kd [6] [µM],kred [6] [s⁻¹],kred/Kd [6] [M⁻¹ s⁻¹]
[2H]C1C=CN(C2OC(COP(=O)(O)OP(=O)(O)OCC3OC(n4cnc5c(N)ncnc54)C(OP(=O)(O)O)C3O)C(O)C2O)C=C1C(N)=O (stereo not shown) [pro-S NADPD],0.93 ± 0.03,,,,,,,,,,,,,,,,,
NC(=O)C1=CN([C@@H]2O[C@H](COP(=O)(O)OP(=O)(O)OC[C@H]3O[C@@H](n4cnc5c(N)ncnc54)[C@H](O)[C@@H]3O)[C@@H](O)[C@H]2O)C=CC1 [NADH],,0.2 s⁻¹ and 0.172 ± 0.003 s⁻¹,260 ± 20,670 M⁻¹ s⁻¹ and 670 ± 50 M⁻¹ s⁻¹,6.0 ± 0.7,,,,,,,,,,,,,
NC(=O)C1=CN([C@@H]2O[C@H](COP(=O)(O)OP(=O)(O)OC[C@H]3O[C@@H](n4cnc5c(N)ncnc54)[C@H](OP(=O)(O)O)[C@@H]3O)[C@@H](O)[C@H]2O)C=CC1 [NADPH],,3 s⁻¹ and 2.98 ± 0.078 s⁻¹,25 ± 2,120000 M⁻¹ s⁻¹ and 120000 ± 10000 M⁻¹ s⁻¹,3.0 ± 0.1,20,330 ± 20,0.008 ± 0.001,980 ± 70,0.313 ± 0.008,21 ± 8,0.07 ± 0.03,8000 ± 3000,0.17 ± 0.01,0.00002,98,0.6,6000

# From paper PMC3493617 (Journal of the American Chemical Society, 2012)
